Structures can show the parent of a compound that is named as a salt.
Tests used:
[1] = target: detrusor muscles of excised rabbit bladder (Oryctolagus cuniculus, UniProt G1U308)
Text: 1. Action upon detrusor muscles of excised rabbit bladder
(1) Anticholinergic action
The specimens were contracted by carbachol cumulation, and a reaction curve with respect to carbachol concentration was obtained.

Acute toxicity = assay: Acute toxicity; parameters: species or system mice; settings: mouse, in vivo, po; mortality one week later, method of Weil
Description: ddY-Mice (male; 6 to 7 week age) were used as test animals (each group consisting of four mice). Each of the mice was fasted from the previous day (16 to 18 hours before), a drug being tested was orally administered by using a gastric tube, and LD50 value was calculated from the mortality one week later according to the method of Weil.

in vivo = settings: rat, iv, 3 mg/kg
Description: 4. Concentration of unchanged drug in the serum
A drug being tested was administered to an SD rat (male; 280 to 360 g) in a dose of 3 mg/kg (i.v.), blood samples were taken out at predetermined intervals, and the change in the concentration of said drug left unchanged in the serum was measured.

rat bladder = settings: for Frequency (cycles of contraction per minute), 0.1 mg/kg (i.v.) / Frequency (cycles of contraction per minute), 0.3 mg/kg (i.v.) / Frequency (cycles of contraction per minute), 1.0 mg/kg (i.v.) / Frequency (cycles of contraction per minute), 3.0 mg/kg (i.v.): 0 to 15 minutes, cumulative administration; for Frequency (cycles of contraction per minute), 1.0 mg/kg (i.v.): *p < 0.05; for Frequency (cycles of contraction per minute), 3.0 mg/kg (i.v.): **p < 0.01; for Frequency (cycles of contraction per minute), before administration: before administration (baseline); for action to suppress the frequency of contraction: i.v., cumulative, result in words
[2] = tested on: detrusor muscles of excised rabbit bladder; assay: Ca++ antagonism upon detrusor muscles of excised rabbit bladder (calcium chloride contraction); settings: for pA2 value, Ca++ Antagonism: calcium chloride cumulation, Ca++-free, high KCl-modified Krebs' solution, excised rabbit detrusor
[3] = prior art statement; cited from earlier work

Chain of detrusor muscles of excised rabbit bladder (Oryctolagus cuniculus, UniProt G1U308) (G1U308 entry or part of it): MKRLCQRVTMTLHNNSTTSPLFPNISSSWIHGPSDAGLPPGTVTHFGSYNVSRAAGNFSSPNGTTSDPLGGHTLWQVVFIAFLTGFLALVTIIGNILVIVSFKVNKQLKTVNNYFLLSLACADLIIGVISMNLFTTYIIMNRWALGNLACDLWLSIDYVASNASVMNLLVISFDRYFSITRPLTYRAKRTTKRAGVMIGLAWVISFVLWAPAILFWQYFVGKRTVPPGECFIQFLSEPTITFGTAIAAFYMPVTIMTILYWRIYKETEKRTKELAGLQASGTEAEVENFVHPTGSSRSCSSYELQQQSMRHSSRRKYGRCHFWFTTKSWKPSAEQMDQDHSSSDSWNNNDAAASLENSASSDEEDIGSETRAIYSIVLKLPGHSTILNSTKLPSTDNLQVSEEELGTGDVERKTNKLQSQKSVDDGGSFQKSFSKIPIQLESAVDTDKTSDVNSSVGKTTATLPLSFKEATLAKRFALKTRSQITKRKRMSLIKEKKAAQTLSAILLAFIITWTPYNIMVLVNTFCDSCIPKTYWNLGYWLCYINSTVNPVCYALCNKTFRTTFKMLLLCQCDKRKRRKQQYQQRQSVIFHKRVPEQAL

| SMILES | Kb [1] [nM] | anticholinergic action compared with oxybutynin ([1]; ratio to oxybutynin) | LD50 at 168 h (Acute toxicity) [mg/kg] | half-life (in vivo) [min] | Frequency (cycles of contraction per minute), 0.1 mg/kg (i.v.) (rat bladder) | Frequency (cycles of contraction per minute), 0.3 mg/kg (i.v.) (rat bladder) | Frequency (cycles of contraction per minute), 1.0 mg/kg (i.v.) (rat bladder) | Frequency (cycles of contraction per minute), 3.0 mg/kg (i.v.) (rat bladder) | minimal effective dose (rat bladder; Rattus norvegicus, iv, read-out: doses showing action to suppress the frequency of contraction) [mg/kg] | Frequency (cycles of contraction per minute), before administration (rat bladder) | action to suppress the frequency of contraction (rat bladder) | pA2 value, Ca++ Antagonism [2] | Ca++ antagonism compared with oxybutynin ([2]; ratio to oxybutynin) [times] | side effects [3] |
| --- | --- | --- | --- | --- | --- | --- | --- | --- | --- | --- | --- | --- | --- | --- |
| CCN(CC)CC#CC(C)(C)OC(=O)C(O)(c1ccccc1)C1CCCCC1 (stereo not drawn) [Example 4, 4-diethylamino-1.1-dimethyl-2-butynyl α-cyclohexylα-phenylglycolate hydrochloride] | 46.8 | 1/17 | 841 | 51 | 1.1 ± 0.3 cycles of contraction per minute | 0.8 ± 0.2 cycles of contraction per minute | 0.3 ± 0.1 cycles of contraction per minute | 0.0 ± 0.0 cycles of contraction per minute | ≥ 0.1 | 1.3 ± 0.3 cycles of contraction per minute | dose-dependent action to suppress the frequency of contraction | 6.72 | 8.3 | – |
| CCN(CC)CC#CCOC(=O)C(O)(c1ccccc1)C1CCCCC1 (centres unmarked) [Oxybutynin, oxybutynin, reference compound] | 2.75 | – | – | 16.8 | 1.1 ± 0.2 cycles of contraction per minute | 1.0 ± 0.2 cycles of contraction per minute | 1.2 ± 0.1 cycles of contraction per minute | 1.2 ± 0.2 cycles of contraction per minute | – | 1.0 ± 0.1 cycles of contraction per minute | no such action was observed | 5.80 | – | exhibits side effects such as thirst |

Reference: patent publication US5036098A, “Butynylamine derivatives and their production” (Nippon Shinyaku Co., Ltd., priority 1988, dated 1991)
